The subject of assay [1] is Calu-6. Put plainly: Growth inhibition of Calu-6 cells, products alone (IC50) and in combination (CI, Chou and Talalay). Type of assay: cell-based. As to conditions: for IC50 (order of magnitude, in words): the cell lines tested (Calu-6 and NCI-H460). How it is done: (§1) 1) Prior determination of the IC50 of the products taken in isolation on the cell lines.
(§2) Different concentration ratios were established, which were tested on the different cell lines.
(§3) For each cell line three tests were carried out.

In another assay the test system is NCI-H460. The assay can be described thus: Growth inhibition of NCI-H460 cells, products alone (IC50) and in combination (CI, Chou and Talalay). In kind it is cell-based. Particulars: Avandia alone. How it is done:
as §1, §2, §3

For assay [2], the system named is type L1210 intra-peritoneal lymphoma. Put plainly: Mortality of mice carrying type L1210 intra-peritoneal lymphoma. As to conditions: for Ratio % Treated/controls (T/C%): median survival times; for anti-tumour effectiveness (in words): T/C% greater than 125%. Type of assay: in vivo. How it is done:
Mice carrying a type L1210 intra-peritoneal lymphoma were treated for 7 days in parallel with the following preparations: • SYN857 (A): chlorophosphoenol pyruvate • SYN856 (B): chlorophosphoenol pyruvate and carnitine ester • BCNU: carmustine • Vehicle: control
The weight of the animals for each group as well as the individual weight curves as a function of time were plotted and the mortality of the animals was monitored.
The parameter T/C% is calculated with the ratio of the median survival time of the animals in the group considered to the median survival time of the animals in the control group, all multiplied by 100.

Assay [3] relates to Calu-6. The assay can be described thus: Fraction affected (Fa) and synergy index (CI) on lung cell line Calu-6, betaine citrate/metformin. In kind it is cell-based. The source says: The cell line adopted for carrying out the experiment is the line Calu-6.
These Fa values are used in the calculation of the synergy index (CI) which makes it possible to report the presence or absence of synergy between the products.

Setting [4] is: product alone at 0.10 mM, three experiments.
The mark [5] stands for this setting: product alone at 0.20 mM, three experiments.
The mark [6] stands for this setting: product alone at 1.00 mM, three experiments.
Setting [7] is: product alone at 2.00 mM, three experiments.
The mark [8] stands for this setting: product alone at 4.00 mM, three experiments.

“And” between values parts separate entries of the source, which are not always exact repeats. Identical values can stand only once. Like-named read-outs stand apart in the source and are kept apart here.

The term IC50 denotes the concentration needed to halve the response being measured.

`CN(CCOc1ccc(CC2SC(=O)NC2=O)cc1)c1ccccn1` (centres unmarked) [Avandia ®, rosiglitazone]: the concentration for half-maximal inhibition (IC50) in the assay with Calu-6 [1] (Calu-6, Avandia alone) is 14.1 µM; with NCI-H460 it was 8.84 µM. In addition, in the assay on Calu-6 [1], the “IC50 (order of magnitude, in words)” value is given as “of the order of ten micromols”.
For `O=NN(CCCl)C(=O)NCCCl` [BCNU ®, carmustine], in assay [2] (15 mg/kg/inj.), the “Ratio % Treated/controls (T/C%)” value is reported as over 128.5%. Also, the “Number of dead mice” value in assay [2] (15 mg/kg/inj., positive control) is reported as 0; in assay [2] (15 mg/kg/inj., positive control, listed as BCNU) it was “still alive”.
As to `CN(C)C(=N)N=C(N)N` [Met, metformin], the “Average Fa” value with Calu-6 [3] was 0.07 and 0.10; in the assay with Calu-6 [3] (setting [4]), 0.06; with Calu-6 [3] (setting [5]), 0.05; in the assay with Calu-6 [3] (setting [6]), 0.21; in the assay on Calu-6 [3] (setting [7]) it was 0.32; with Calu-6 [3] (setting [8]) it was 0.41. Also, the “Fa Exp 1” value in the assay with Calu-6 [3] (product alone at 0.05 mM) turned out to be 0.03; with Calu-6 [3] (product alone at 0.10 mM) it was 0.08; with Calu-6 [3] (product alone at 0.20 mM), 0.04; in the assay with Calu-6 [3] (product alone at 0.25 mM) it was 0.06; in the assay with Calu-6 [3] (product alone at 0.50 mM) it was 0.08; in the assay on Calu-6 [3] (product alone at 1.00 mM), 0.18. Also, the figures for the “Fa Exp 1” value in the assay with Calu-6 [3] (product alone at 2.00 mM) and in the assay on Calu-6 [3] (product alone at 4.00 mM) were 0.03 and 0.36, respectively. In addition, the “Fa Exp 3” value is recorded as 0.04 in the assay on Calu-6 [3] (product alone at 0.10 mM); 0.06 in the assay on Calu-6 [3] (product alone at 0.20 mM); 0.08 with Calu-6 [3] (product alone at 0.25 mM); 0.13 with Calu-6 [3] (product alone at 0.50 mM); 0.25 with Calu-6 [3] (product alone at 1.00 mM); 0.36 in the assay on Calu-6 [3] (product alone at 2.00 mM). For the same compound, the “Fa Exp 3” value in the assay on Calu-6 [3] (product alone at 4.00 mM) is reported as 0.46. Moreover, the “Fa Exp 2” value in the assay on Calu-6 [3] (product alone at 0.20 mM) came to 0.04; in the assay with Calu-6 [3] (product alone at 0.25 mM) it was 0.06; in the assay with Calu-6 [3] (product alone at 0.50 mM) it was 0.09; in the assay on Calu-6 [3] (product alone at 1.00 mM), 0.19; with Calu-6 [3] (product alone at 2.00 mM) it was 0.31; with Calu-6 [3] (product alone at 4.00 mM), 0.40.
Turning to betaine citrate [Betain citrate], in the assay on Calu-6 [1], the “IC50 (order of magnitude, in words)” value is reported as “of the order of a millimol”. Besides, the “Fa Exp 1” value was found to be 0.00 with Calu-6 [3] (product alone at 0.05 mM); 0.00 in the assay on Calu-6 [3] (product alone at 0.10 mM); 0.12 in the assay on Calu-6 [3] (product alone at 0.20 mM); 0.02 with Calu-6 [3] (product alone at 0.25 mM); 0.31 with Calu-6 [3] (product alone at 0.50 mM); 0.59 in the assay with Calu-6 [3] (product alone at 1.00 mM). The “Fa Exp 1” value with Calu-6 [3] (product alone at 2.00 mM) worked out at 0.69; with Calu-6 [3] (product alone at 4.00 mM), 0.77. In addition, the “Fa Exp 2” value in the assay with Calu-6 [3] (product alone at 0.10 mM) amounted to 0.02; in the assay with Calu-6 [3] (product alone at 0.25 mM), 0.08; in the assay with Calu-6 [3] (product alone at 0.50 mM), 0.15; in the assay with Calu-6 [3] (product alone at 1.00 mM), 0.18; in the assay on Calu-6 [3] (product alone at 2.00 mM), 0.37; in the assay with Calu-6 [3] (product alone at 4.00 mM), 0.61. The “Fa Exp 3” value in the assay on Calu-6 [3] (product alone at 0.10 mM) was 0.00; with Calu-6 [3] (product alone at 0.20 mM), 0.00; in the assay on Calu-6 [3] (product alone at 0.25 mM) it was 0.00; with Calu-6 [3] (product alone at 0.50 mM) it was 0.26; in the assay with Calu-6 [3] (product alone at 1.00 mM) it was 0.63; with Calu-6 [3] (product alone at 2.00 mM), 0.77. The “Fa Exp 3” value in the assay on Calu-6 [3] (product alone at 4.00 mM) was found to be 0.83. The “Average Fa” value with Calu-6 [3] (setting [4]) stood at 0.02; with Calu-6 [3] (setting [5]), 0.01; in the assay with Calu-6 [3] (product alone at 0.25 mM, three experiments), 0.06; in the assay with Calu-6 [3] (product alone at 0.50 mM, three experiments), 0.03; in the assay with Calu-6 [3] (setting [6]), 0.24; with Calu-6 [3] (setting [7]) it was 0.47. Besides, the “Average Fa” value with Calu-6 [3] (setting [8]) came to 0.61.
With chlorophosphoenol pyruvate [SYN857], in assay [2] (70 mg/kg/inj.), the “Average number of days of survival ± SD” value came out at 8.78 ± 0.42 days, the “Median value” worked out at 9 days and the “Ratio % Treated/controls (T/C%)” value is recorded as over 128.5%. Also, the “Number of dead mice” value in assay [2] (70 mg/kg/inj., out of 10 mice, at 9 days) came to 9. Besides, in assay [2] (136 mg/kg/inj.), the “Average number of days of survival ± SD” value is listed as 9.00 ± 00.0 days, the “Median value” is given as 9 days and the “Ratio % Treated/controls (T/C%)” value is over 128.5%. In assay [2] (136 mg/kg/inj., out of 10 mice, at 9 days), the “Number of dead mice” value amounted to 4. In assay [2] (L1210 lymphoma mice), the “anti-tumour effectiveness (in words)” value is “anti-tumour effectiveness”.
With “chlorophosphoenol pyruvate and carnitine ester [SYN856]”, in assay [2] (30 mg/kg/inj.), the “Average number of days of survival ± SD” value is listed as 9.00 ± 0.00 days, the “Median value” is given as 9 days and the “Ratio % Treated/controls (T/C%)” value is over 128.5%. In assay [2] (60 mg/kg/inj.), the “Average number of days of survival ± SD” value was determined as 9.00 ± 0.00 days, the “Median value” was found to be 9 days and the “Ratio % Treated/controls (T/C%)” value is on record as over 128.5%. Also, in assay [2] (60 mg/kg/inj., out of 10 mice, at 9 days), the “Number of dead mice” value was 6. In assay [2] (L1210 lymphoma mice), the “effective concentration compared with chlorophosphoenol pyruvate alone (in words)” value is given as “effective at a lower concentration than chlorophosphoenol pyruvate alone” and the “anti-tumour effectiveness (in words)” value was “anti-tumour effectiveness”.

These data come from patent publication US20070280918A1, “Multitherapy Against Cancer” (priority 2004, published 2007).
